From ChEMBL document CHEMBL1148219, “Cytotoxic sesquiterpene lactones from Eupatorium lindleyanum” (J Nat Prod, 2004)
≈ marks a conversion by molar mass, not a printed value. Calls of active or inactive are those of the source. No cut-off for these calls is given here.

Key:
P388 = assay: Cytotoxicity against mouse P388 cells after 24 hrs; format: functional, cell-based; settings: for IC50: P388, 24 h
A549 = assay: Cytotoxicity against human A549 cells after 24 hrs; format: functional, cell-based; settings: for IC50: A549, 24 h

Row | SMILES | Activity (P388) | Activity (A549) | IC50 (A549) [µg/mL] | IC50 (P388) [µg/mL]
1 | C=C1C(=O)O[C@H]2[C@H]1[C@H](OC(=O)/C(C)=C/CO)C[C@](O)(CO)[C@@H]1[C@H](O)[C@H]3O[C@@]3(C)[C@H]21 | inactive | inactive |  | 
2 | C=C1C(=O)O[C@@H]2[C@H]3C(C)=C[C@@H](O)[C@H]3[C@@](O)(CCl)C[C@@H](OC(=O)/C(C)=C/C)[C@@H]12 [EUPALINILIDE E] | inactive |  | 0.028 (≈ 0.0706 µM) | 
3 | C=C1C(=O)O[C@H]2[C@H]1[C@H](OC(=O)/C(C)=C/CO)CC(=C)[C@@H]1C=C[C@@](C)(O)[C@H]21 [EUPALINILIDE B] |  |  | 0.75 (≈ 2.08 µM) | 0.21 (≈ 0.583 µM)
4 | C=C1C(=O)O[C@@H]2[C@H]3C(C)=C[C@H]4OC[C@@](O)(C[C@@H](OC(=O)/C(C)=C/CO)[C@@H]12)[C@@H]34 [EUPALINILIDE C] |  |  | 11 (≈ 29.2 µM) | 1.2 (≈ 3.19 µM)
5 | C=C1C(=O)O[C@@H]2[C@H]3C(C)=C[C@@H](O)[C@H]3[C@@](O)(CO)C[C@@H](OC(=O)/C(C)=C/CO)[C@@H]12 | inactive | inactive |  | 
6 | COC(=O)C1=CC[C@@]23CC[C@@H]([C@@](C)(/C=C/C=C(\C)C(=O)O)OC2=O)[C@@]3(OC(C)=O)CC1 [PSEUDOLARIC ACID B] |  |  | 0.86 (≈ 1.99 µM) | 
